Entries after “also recorded” stand apart in the source; their conditions may differ. Read-outs that look alike come from different tables or passages of the source.
Legend:
jack bean urease [1] = target: T1, jack bean urease (Canavalia ensiformis, UniProt P07374); assay: biochemical; assay type: biochemical
Description: The inhibitory effects on urease activity were done based on the Weatherburn method, using the indophenol scheme by determining the amount of ammonia produced. Briefly, 20 μL of jack bean urease enzyme (0.135 units) and 20 μL of the tested compounds were taken in 50 μL buffer and were incubated for 30 min. Temperature was kept at 37°C in a 96-well plate reader. The buffer solution was made by 0.01 molar K2HPO4/KH2PO4, 1 mM EDTA, 100 mM urea, and 0.01 M LiCl; pH was maintained at 7.0. Then, 50 μL of phenol reagent (1% w/v phenol and 0.005% w/v sodium nitroprusside) was added in 50 μL of alkali reagent in each well. The alkali reagent was prepared by 0.5% w/v NaOH and 0.1% NaOCl. Absorbance was measured at 625 nm using OPTIMax, a tunable microplate reader, after 10 min interval in a triplicate manner. The thiourea was used as a standard jack bean urease inhibitor. The data has been analyzed using software, GraphPad Prism, and statistical analysis (SD) was performed by using SigmaPlot software to get SD values of the bioassay results.

jack bean urease [2] = target: T1, jack bean urease; assay: Kinetic study of jack bean urease inhibition (Lineweaver-Burk plots); assay type: biochemical; design: 1/Vmax: unit not given here
Description: The derivative 4b was selected on the basis of its high activity for the determination of its kinetic mechanism on jack bean urease. The enzyme inhibition EI and enzyme-substrate inhibition ESI constants for compound 4b have been determined. The inhibitor concentration used in the kinetic experiments was 0.00, 0.0008, and 0.0016 μM while concentration of substrate was 0.0, 0.1, 0.2, 0.3, and 0.4 mM. The kinetic mechanism was determined by plotting of 1/V versus 1/[S] in the presence of inhibitor concentrations which gave a series of straight lines as shown in Figure 3. […] The EI dissociation constant (Ki) and ESI dissociation constant (Ki′) for compound 4b have also been determined from Lineweaver-Burk plots.

jack bean urease [3] = target: T1, jack bean urease; conditions: jack bean urease inhibitors already reported; ref [35], [36]; cited from earlier work
[4] = n = 3, 30 min, 37°C, pH 7.0, 100 mM urea, read-out: Urease (jack bean) inhibition IC50 ± SD

T1 sequence (P07374 whole entry, looked up): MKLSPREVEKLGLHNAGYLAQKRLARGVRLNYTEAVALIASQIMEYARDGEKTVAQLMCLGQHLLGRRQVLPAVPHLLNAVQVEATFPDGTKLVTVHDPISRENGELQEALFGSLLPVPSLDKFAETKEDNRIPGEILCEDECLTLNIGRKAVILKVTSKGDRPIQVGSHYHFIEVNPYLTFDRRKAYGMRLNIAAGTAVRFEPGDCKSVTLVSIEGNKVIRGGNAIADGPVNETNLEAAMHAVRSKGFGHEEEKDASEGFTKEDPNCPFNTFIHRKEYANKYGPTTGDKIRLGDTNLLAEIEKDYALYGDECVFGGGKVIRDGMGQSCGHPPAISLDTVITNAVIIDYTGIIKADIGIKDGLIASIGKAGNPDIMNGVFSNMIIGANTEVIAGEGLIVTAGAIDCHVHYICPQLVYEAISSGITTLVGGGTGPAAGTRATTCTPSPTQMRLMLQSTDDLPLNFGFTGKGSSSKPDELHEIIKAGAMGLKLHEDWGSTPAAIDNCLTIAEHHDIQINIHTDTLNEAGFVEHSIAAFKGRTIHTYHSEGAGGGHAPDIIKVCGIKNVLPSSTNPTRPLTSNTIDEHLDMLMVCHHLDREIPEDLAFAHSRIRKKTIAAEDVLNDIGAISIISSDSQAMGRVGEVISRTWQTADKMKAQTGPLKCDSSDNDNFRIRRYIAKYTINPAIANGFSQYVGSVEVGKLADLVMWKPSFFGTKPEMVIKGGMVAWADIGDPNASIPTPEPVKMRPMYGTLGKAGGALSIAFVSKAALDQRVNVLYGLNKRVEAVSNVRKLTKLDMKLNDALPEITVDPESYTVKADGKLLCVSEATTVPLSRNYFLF

In the case of “2-((5-Isopropyl-2-methyl phenyl) Amino)-2-oxoethyl 2-Bromobenzoate [4i]”, the IC50 (jack bean urease [1]; [4]) is reported as 21.1 ± 0.7 nM.

Work on “2-((5-Isopropyl-2-methyl phenyl) Amino)-2-oxoethyl 3,4-Dichlorobenzoate [4k]” yielded an IC50 (jack bean urease [1]; [4]) of 50.1 ± 1.7 nM.

For “2-((5-Isopropyl-2-methyl phenyl) Amino)-2-oxoethyl 3-Bromobenzoate [4j]”, the IC50 (jack bean urease [1]; [4]) was 2.1 ± 0.1 nM and the “times more active than derivative 4k” value (jack bean urease [1]; ratio of urease inhibitory activity, 4j versus 4k) was 25.

In the case of `CC(C)c1ccc(NC(=O)COC(=O)c2ccccc2Cl)cc1` [4a, 2-((4-Isopropylphenyl)amino)-2-oxoethyl 2-Chlorobenzoate], the IC50 (jack bean urease [1]) is reported as 57.1 ± 1.9 nM and the melting point is reported as 94 to 96 °C.

For `CC(C)c1ccc(NC(=O)COC(=O)c2cccc(Cl)c2)cc1` [4b, 2-((4-Isopropylphenyl)amino)-2-oxoethyl 3-Chlorobenzoate], the IC50 (jack bean urease [1]) was 1.6 ± 0.2 nM, the melting point was 96 to 98 °C and the Ki (jack bean urease [2]) was 0.7 nM. The Inhibition type (jack bean urease [2]; Lineweaver-Burk plots) was “mixed type of inhibitor; also recorded: mixed type of inhibition”, the “Ki′ (ESI dissociation constant)” value (jack bean urease [2]; from Lineweaver-Burk plots) was 1.8 nM and the 1/Vmax (jack bean urease [2]; inhibitor dose 0.0016 μM, substrate urea) was 0.00088.

With `CC(C)c1ccc(NC(=O)COC(=O)c2ccc(Cl)c(Cl)c2)cc1` [4c, 2-((4-Isopropylphenyl)amino)-2-oxoethyl 3,4-Dichlorobenzoate] the IC50 (jack bean urease [1]) was 18.2 ± 0.6 nM and the melting point was 107 to 108 °C.

For `CC(C)c1ccc(NC(=O)COC(=O)c2ccccc2Br)cc1` [4d, 2-((4-Isopropylphenyl)amino)-2-oxoethyl 2-Bromobenzoate], the IC50 (jack bean urease [1]) was 3.8 ± 0.2 nM and the melting point was 89 to 90 °C.

In the case of `CC(C)c1ccc(NC(=O)COC(=O)c2cccc(Br)c2)cc1` [4e, 2-((4-Isopropylphenyl)amino)-2-oxoethyl 3-Bromobenzoate], the IC50 (jack bean urease [1]) is reported as 62.7 ± 2.1 nM and the melting point is reported as 91 to 92 °C.

With `CC(C)c1ccc(NC(=O)COC(=O)c2ccccc2I)cc1` [4f, 2-((4-Isopropylphenyl)amino)-2-oxoethyl 2-Iodobenzoate] the IC50 (jack bean urease [1]) was 31.2 ± 1.1 nM and the melting point was 91 to 92 °C.

Molecule `Cc1ccc(C(C)C)cc1NC(=O)COC(=O)c1ccccc1Cl` [4g, 2-((5-Isopropyl-2-methylphenyl) Amino)-2-oxoethyl 2-Chloro Benzoate] has an IC50 (jack bean urease [1]) of 3.8 ± 0.2 nM and a melting point of 115 to 116 °C.

For `Cc1ccc(C(C)C)cc1NC(=O)COC(=O)c1ccccc1I` [4l, 2-((5-Isopropyl-2-methylphenyl) Amino)-2-oxoethyl 2-Iodobenzoate], the IC50 (jack bean urease [1]) was 11.5 ± 3.9 nM.

`NC(N)=S` [Thiourea, thiourea, reference compound] showed an IC50 (jack bean urease [1]; [4]) of 472 ± 135 nM.

For `Cc1ccc(C(=O)NC(=S)Nc2coc(=O)c3ccccc23)cc1` [compound 2], the IC50 (jack bean urease [3]) is given as 6.5 nM.

From PMC7775144, “Enzyme Inhibitory Kinetics and Molecular Docking Studies of Halo-Substituted Mixed Ester/Amide-Based Derivatives as Jack Bean Urease Inhibitors” (BioMed Research International, 2020)
